Consider 23 compounds from patent publication US20230416256A1, “SMALL MOLECULE INHIBITORS OF NF-kB INDUCING KINASE” (Janssen Pharmaceutica NV, priority 2020, published 2023).

pIC50: −log10 of the molar value. Like-named read-outs stand apart in the source and are kept apart here.

Assay [1] concerns p-IKKα levels in L363 (NIK translocated multiple myeloma) cells. In words: Effect of compounds on p-IKKα levels in L363 cells (AlphaLISA SureFire Ultra). Conditions: Homo sapiens, 10 μM MG132, 6 h, average of values obtained, read-out: Assay 2 IC50. The class given is cell-based, human. The method, then:
Effect of Compounds on p-IKKα Levels in L363 (NIK Translocated Multiple Myeloma) Cells
All compounds tested were dissolved and serially diluted in DMSO, 1:3 dilution for 11 points in an Echo compatible plate. 100% DMSO was added to columns 12 and 24 of the plate to serve as high and low signal controls. This compound plate was used to spot 20 nL of compound or DMSO into a Greiner 384 well TC plate (781080). The final DMSO concentration was 0.3% (v/v) in cell assays. Human L363 cells (ATCC) were cultured in RPMI1640 medium supplemented with GlutaMax, non-essential amino acids, sodium pyruvate and 10% fetal bovine serum. Cells were routinely maintained at densities of […]-2×10^6 cells per mL at 37° C. in a humidified 5% CO2 atmosphere incubator. Cells were passaged twice a week splitting back to obtain the low density. The day before the assay, cells were washed twice in HBSS (Hank's Balanced Salt Solution), resuspended in Dulbecco's Modified Eagle Medium (DMEM)+0.5% IgG and protease free BSA (Jackson Immuno Research Laboratories), +/−250 ng/ml recombinant human B-cell activating factor (BAFF/BLyS/TNFSF13B) and incubated overnight at 37° C. in a humidified 5% CO2 atmosphere (bulk stimulation with or without BAFF). The next day, the cell concentration was adjusted to 1×10^7 cells/ml in DMEM+/−250 ng/ml BAFF+/10 μM MG132 and plated at […] into compound or DMSO spotted 384 well TC plates. Seeded cells were incubated at 37° C. in a humidified 5% CO2 atmosphere for 6 h. After 6 h, the plates were removed from the incubator and cell lysis was achieved by the addition of 2.5 μl 5×lysis buffer containing protease and phosphatase inhibitors, followed by shaking on a plate shaker at room temperature for 15 min. At the end of this incubation, lysed cells were sequentially treated and incubated with acceptor and donor bead mixes according to the manufacturer's protocol for a 1 plate/2-incubation suspension cell assay (AlphaLISA SureFire Ultra p-IKKa (Ser 176/180) Assay Kit (Perkin Elmer). Plates were read using an EnVision Multilabel Plate Reader (Perkin Elmer). Within an experiment, a concentration response curve for each compound was run in duplicate. The signal obtained in the test wells was normalized using high signal (BAFF stimulated cells, DMSO, MG132) and low signal (unstimulated cells, DMSO) controls. To determine the IC50, a sigmoidal curve was fitted to the plot of % inhibition versus Log10 compound concentration.
(In general: In Alpha technology, singlet oxygen from a donor bead excites a nearby acceptor bead.)

Assay [2] addresses recombinant human NF-kappaB-inducing kinase (NIK/MAP3K14) (Homo sapiens, UniProt Q99558). In words: Inhibition of auto-phosphorylation of recombinant human NIK/MAP3K14 activity (AlphaScreen). The format is biochemical. Conditions: GST-tagged NIK/MAP3K14 1 nM, 5 μM ATP, 2 h at 25° C.; average of values obtained. On the procedure:
Inhibition of Auto-Phosphorylation of Recombinant Human NF-kappaB-Inducing Kinase (NIK/MAP3K14) Activity (AlphaScreen®)
NIK/MAP3K14 auto-phosphorylation activity was measured using the AlphaScreen® (αscreen) format (Perkin Elmer). All compounds tested were dissolved in dimethyl sulfoxide (DMSO) and further dilutions were made in assay buffer. The final DMSO concentration was 0.7% (v/v) in assays. The assay buffer was 50 mM Tris pH 7.5 containing 1 mM EGTA (ethylene glycol tetraacetic acid), 1 mM DTT (dithiothreitol), 0.1 mM Na3VO4, 5 mM MgCl2, and 0.01% Tween® 20. The assays were carried out in 384 well Proxiplates (Perkin Elmer). The incubations consisted of the compound, 5 μM Adenosine-5′-triphosphate (ATP), and 1 nM NIK/MAP3K14. Incubations were initiated by the addition of GST-tagged NIK/MAP3K14 enzyme, carried out for 2 h at 25° C. and terminated by addition of stop buffer containing anti-phospho-IKK Ser176/180 antibody. Protein A Acceptor and Glutathione-Donor beads were added before reading using an EnVision Multilabel Plate Reader (Perkin Elmer). The signal obtained in the wells was normalized using high (full enzyme activity, 0.7% DMSO) and low controls (no enzyme activity, 0.7% DMSO, no ATP). IC50's were determined by fitting a sigmoidal curve to % inhibition of control versus Log10 compound concentration.

The mark [3] stands for this setting: L-363, 250 ng/ml BAFF stimulated.
Where [4] appears, read: L-363, 6 h, 250 ng/ml BAFF stimulated.

In general, pIC50 refers to −log10 of the IC50, conventionally taken in molar units.

recombinant human NF-kappaB-inducing kinase (NIK/MAP3K14), sequence (Q99558 whole entry): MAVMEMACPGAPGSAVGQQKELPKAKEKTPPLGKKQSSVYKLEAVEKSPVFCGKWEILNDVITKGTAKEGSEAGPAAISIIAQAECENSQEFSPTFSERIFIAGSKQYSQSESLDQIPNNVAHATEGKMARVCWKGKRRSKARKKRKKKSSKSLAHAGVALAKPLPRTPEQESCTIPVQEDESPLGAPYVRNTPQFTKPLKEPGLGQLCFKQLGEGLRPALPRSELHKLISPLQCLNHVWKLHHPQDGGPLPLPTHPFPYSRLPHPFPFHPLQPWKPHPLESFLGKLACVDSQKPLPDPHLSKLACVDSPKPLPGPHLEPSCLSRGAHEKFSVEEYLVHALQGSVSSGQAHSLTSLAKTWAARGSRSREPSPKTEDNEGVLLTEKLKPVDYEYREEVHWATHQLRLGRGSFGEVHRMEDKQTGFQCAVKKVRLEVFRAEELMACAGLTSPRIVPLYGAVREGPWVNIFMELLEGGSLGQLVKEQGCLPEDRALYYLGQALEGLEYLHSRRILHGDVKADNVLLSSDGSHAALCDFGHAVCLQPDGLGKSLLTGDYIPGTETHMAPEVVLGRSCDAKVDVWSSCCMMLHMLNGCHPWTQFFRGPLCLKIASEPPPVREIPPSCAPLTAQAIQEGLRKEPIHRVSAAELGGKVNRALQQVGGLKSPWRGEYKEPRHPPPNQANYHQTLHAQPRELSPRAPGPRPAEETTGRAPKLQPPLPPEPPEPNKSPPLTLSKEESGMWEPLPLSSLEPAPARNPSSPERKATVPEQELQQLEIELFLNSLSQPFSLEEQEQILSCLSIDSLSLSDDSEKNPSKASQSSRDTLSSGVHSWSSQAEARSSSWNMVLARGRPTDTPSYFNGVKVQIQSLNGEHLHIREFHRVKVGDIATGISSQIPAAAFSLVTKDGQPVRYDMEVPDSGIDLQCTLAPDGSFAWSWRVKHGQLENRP

For `CN1CC[C@](O)(c2cccc(-c3csc(-c4c[nH]c5nccnc45)n3)c2)C1=O` (single isomer, unassigned) [Example 39], the pIC50 in assay [1] (setting [3]) and in assay [2] was under 6.30 throughout.
Regarding `O[C@]1(c2cccc(-c3csc(-c4c[nH]c5ncccc45)n3)c2)CCCn2ccnc21` (single isomer, unassigned) [Example 37], the negative-log IC50 (pIC50) in assay [1] (setting [4]) and in assay [2] was under 6.30 each time.
Take `O[C@]1(c2cccc(-c3csc(-c4c[nH]c5nccnc45)n3)c2)CCn2ccnc21` [Example 42, (S)-7-(3-(2-(5H-Pyrrolo[2,3-b]pyrazin-7-yl)thiazol-4-yl)phenyl)-6,7-dihydro-5H-pyrrolo[1,2-a]imidazol-7-ol]: the figures for the pIC50 in assay [1] (setting [4]) and in assay [2] were under 6.30 and 6.30 to 7.00, respectively.
In the same order, the values of `C[C@@](O)(c1cccc(-c2csc(-c3c[nH]c4ncccc34)n2)c1)c1ncc[nH]1` (single isomer, unassigned) [Example 80] are under 6.30 and under 6.30.
For the compound `CN1CC[C@@](O)(c2cccc(-c3nc(-c4ccc5cnn(C)c5c4)cs3)c2)C1=O` [Example 128, (R)-3-Hydroxy-1-methyl-3-(3-(4-(1-methyl-1H-indazol-6-yl)thiazol-2-yl)phenyl)pyrrolidin-2-one], the pIC50 in assay [1] (setting [3]) and in assay [2] was under 6.30 in each case.
Turning to `O=C1N(CC(F)(F)F)CC[C@@]1(O)c1cccc(-c2csc(-c3c[nH]c4nccnc34)n2)c1` [Example 44, (R)-3-(3-(2-(5H-Pyrrolo[2,3-b]pyrazin-7-yl)thiazol-4-yl)phenyl)-3-hydroxy-1-(2,2,2-trifluoroethyl)pyrrolidin-2-one], the pIC50 in assay [1] (setting [3]) and in assay [2] was under 6.30 each time.
Turning to `Cc1cnc2[nH]cc(-c3nc(-c4cccc([C@]5(O)CCN(C)C5=O)c4)cs3)c2c1` [Example 7, (R)-3-Hydroxy-1-methyl-3-(3-(2-(5-methyl-1H-pyrrolo[2,3-b]pyridin-3-yl)thiazol-4-yl)phenyl)pyrrolidin-2-one], the negative-log IC50 (pIC50) in assay [1] (setting [3]) is 6.30 to 7.00; in assay [2], at least 7.00.
Regarding `CN1CC[C@@](O)(c2cccc(-c3coc(-c4c[nH]c5ncccc45)n3)c2)C1=O` [Example 116, (R)-3-(3-(2-(1H-Pyrrolo[2,3-b]pyridin-3-yl)oxazol-4-yl)phenyl)-3-hydroxy-1-methylpyrrolidin-2-one], the figures for the pIC50 in assay [1] (setting [3]) and in assay [2] were under 6.30 and at least 7.00, respectively.
As to `CN1CC[C@@](O)(c2cccc(-n3ccc(-c4c[nH]c5ncccc45)n3)c2)C1=O` (single isomer, unassigned) [Example 122], the figures for the negative-log IC50 (pIC50) in assay [1] (setting [3]) and in assay [2] were under 6.30 and at least 7.00, respectively.
As for `O[C@@]1(c2cccc(-c3csc(-c4c[nH]c5ncccc45)n3)c2)CCc2scnc21` (single isomer, unassigned) [Example 32], the pIC50 in assay [1] (setting [4]) and in assay [2] was at least 7.00 in each case.
Regarding `O[C@@]1(c2cccc(-c3csc(-c4c[nH]c5ncccc45)n3)c2)CCc2cccnc21` (single isomer, unassigned) [Example 2], the negative-log IC50 (pIC50) in assay [1] (setting [4]) was 6.30 to 7.00; in assay [2] it was at least 7.00.
Take `CN1CC[C@@](O)(c2cccc(-c3csc(-c4c[nH]c5nccnc45)n3)c2)C1=O` (single isomer, unassigned) [Example 40]: the figures for the negative-log IC50 (pIC50) in assay [1] (setting [3]) and in assay [2] were 6.30 to 7.00 and at least 7.00, respectively.
In the case of `N#Cc1cnc2[nH]cc(-c3nc(-c4cccc([C@]5(O)CCn6ccnc65)c4)cs3)c2c1` [Example 26, (R)-3-(4-(3-(7-Hydroxy-6,7-dihydro-5H-pyrrolo[1,2-a]imidazol-7-yl)phenyl)thiazol-2-yl)-1H-pyrrolo[2,3-b]pyridine-5-carbonitrile], the pIC50 in assay [1] (setting [4]) and in assay [2] was at least 7.00 throughout.
In the case of `COc1cnc2[nH]cc(-c3nc(-c4cccc([C@]5(O)CCN(C)C5=O)c4)cs3)c2c1` [Example 49, (R)-3-Hydroxy-3-(3-(2-(5-methoxy-1H-pyrrolo[2,3-b]pyridin-3-yl)thiazol-4-yl)phenyl)-1-methylpyrrolidin-2-one], the pIC50 is 6.30 to 7.00 in assay [1] (setting [3]) and at least 7.00 in assay [2].
For the compound `C[C@@]1(O)C[C@@](O)(c2cccc(-c3csc(-c4c[nH]c5ncccc45)n3)c2)c2ncccc21` [Example 106, (5R,7R)-7-(3-(2-(1H-Pyrrolo[2,3-b]pyridin-3-yl)thiazol-4-yl)phenyl)-5-methyl-6,7-dihydro-5H-cyclopenta[b]pyridine-5,7-diol], the negative-log IC50 (pIC50) in assay [1] (setting [4]) and in assay [2] was under 6.30 throughout.
In the case of `Cc1ccc(-c2csc(-c3c[nH]c4nccnc34)n2)cc1[C@]1(O)CCN(C)C1=O` [Example 69, (R)-3-(5-(2-(5H-Pyrrolo[2,3-b]pyrazin-7-yl)thiazol-4-yl)-2-methylphenyl)-3-hydroxy-1-methylpyrrolidin-2-one], the pIC50 in assay [1] (setting [3]) is under 6.30; in assay [2], 6.30 to 7.00.
Take `CN1CCC[C@@](O)(c2cccc(-c3csc(-c4c[nH]c5nccnc45)n3)c2)C1=O` [Example 54, (R)-3-(3-(2-(5H-Pyrrolo[2,3-b]pyrazin-7-yl)thiazol-4-yl)phenyl)-3-hydroxy-1-methylpiperidin-2-one]: the pIC50 in assay [1] (setting [3]) was 6.30 to 7.00; in assay [2], at least 7.00.
With `CN1CCC[C@](O)(c2cccc(-c3csc(-c4c[nH]c5nccnc45)n3)c2)C1=O` [Example 55, (S)-3-(3-(2-(5H-Pyrrolo[2,3-b]pyrazin-7-yl)thiazol-4-yl)phenyl)-3-hydroxy-1-methylpiperidin-2-one], the pIC50 in assay [1] (setting [3]) and in assay [2] was under 6.30 throughout.
Take `O[C@]1(c2cccc(-c3csc(-c4c[nH]c5ncccc45)n3)c2)C=Cc2cccnc21` (single isomer, unassigned) [Example 34]: the pIC50 in assay [1] (setting [4]) and in assay [2] was under 6.30 in each case.
As for `O[C@@]1(c2cccc(-c3csc(-c4c[nH]c5nccc(F)c45)n3)c2)CCn2ccnc21` [Example 29, (R)-7-(3-(2-(4-Fluoro-1H-pyrrolo[2,3-b]pyridin-3-yl)thiazol-4-yl)phenyl)-6,7-dihydro-5H-pyrrolo[1,2-a]imidazol-7-ol], the negative-log IC50 (pIC50) in assay [1] (setting [4]) and in assay [2] was at least 7.00 each time.
In the case of `O[C@@]1(c2cccc(-c3csc(-c4c[nH]c5ncc(C(F)(F)F)cc45)n3)c2)CCn2ccnc21` [Example 25, (R)-7-(3-(2-(5-(Trifluoromethyl)-1H-pyrrolo[2,3-b]pyridin-3-yl)thiazol-4-yl)phenyl)-6,7-dihydro-5H-pyrrolo[1,2-a]imidazol-7-ol], the results for the pIC50 in assay [1] (setting [4]) and in assay [2] were 6.30 to 7.00 and at least 7.00, respectively.
As to `O[C@@]1(c2cccc(-c3csc(-c4n[nH]c5nccnc45)n3)c2)CCn2ccnc21` [Example 76, (R)-7-(3-(2-(1H-Pyrazolo[3,4-b]pyrazin-3-yl)thiazol-4-yl)phenyl)-6,7-dihydro-5H-pyrrolo[1,2-a]imidazol-7-ol], the pIC50 in assay [1] (setting [4]) is under 6.30; in assay [2] it was 6.30 to 7.00.
On to `O[C@@]1(c2cccc(-c3csc(-c4c[nH]c5ncc(Cl)cc45)n3)c2)CCn2ccnc21` [Example 27, (R)-7-(3-(2-(5-Chloro-1H-pyrrolo[2,3-b]pyridin-3-yl)thiazol-4-yl)phenyl)-6,7-dihydro-5H-pyrrolo[1,2-a]imidazol-7-ol], for which the pIC50 in assay [1] (setting [4]) and in assay [2] was at least 7.00 in each case.
